Reference: patent US9364496B2 (ONCOGENEX TECHNOLOGIES INC., priority 2013, dated 2016)
Where “and” joins values, the source holds several entries; their conditions need not be identical. Identical values can stand only once. Entries after “also recorded” stand apart in the source; their conditions may differ. Oligonucleotides are written 5' to 3', each unit as a sugar letter and its base; * is a phosphorothioate linkage, no mark a phosphodiester; rarer units and linkages stand in square brackets, end groups in braces. Plain capitals give the bases only. e = 2'-O-(2-methoxyethyl) (MOE); [5mC] = 5-methylcytosine; d = 2'-deoxy (DNA)

Tests used:
[1] = test system: RPMI 8226 (human myeloma) xenograft; experiment: In vivo activity of custirsen with Velcade, RPMI 8226 xenograft (Example 14); details: for weight / Δ weight / volume / Δ volume / % of baseline / Δ %: later day (day not given); for volume / Δ volume: tumor; for % of baseline / Δ %: weight
Procedure: The cells were implanted subcutaneously into female SCID mice with 7×10^6 cells inoculum.
Tumors and body weights were measured weekly until termination of the study on day 71. Response to treatment was evaluated for tumor growth inhibition (TGI) and tumor growth delay (TGD).
70 CB.17 SCID female mice, 4-6 weeks old, 16-20 grams, obtained from Harlan animal breeding center.
Sample from the cell suspension was taken for counting (0.3 ml in duplicates for CEDEX) before spun down. Cell viability was 85.6% and live cell concentration was 167×10^5 cells/ml. The pellet was resuspended in HBSS to a final volume of 8 ml.
Tumors were implanted subcutaneously with RPMI-8226 cells into the right flank of the mouse on Day 0. Each animal received a s.c. injection 7×10^6 cells in 0.1 ml suspension. On day 20, mice were sorted by the optimal tumor volume ([…]) and were allocated into 5 groups of 10 mice. Mice were individually tagged and their tumor volume and body weight were monitored weekly during the study. Tumor size was measured by caliper and calculated using the formula: […]
The treatment started on […] (0.2 ml per 20 grams v/w) and continued till day 52, after which the remaining mice were left for observation until day 71.

[2] = Phase I healthy volunteer study TV1011-DDI-102, 640 mg custirsen; type: in vivo
Text: Three subjects withdrew from the study due to these constitutional symptoms.

[3] = test system: lung cancer; type: in vivo, human; details: each group; loading doses then custirsen with a chemotherapeutic agent
Text: At least 50 lung cancer patients are separated into two groups.

[4] = test system: bladder cancer; type: in vivo, human; details: each group; loading doses then custirsen with a chemotherapeutic agent
Text: At least 50 bladder cancer patients are separated into two groups.

[5] = test system: ovarian cancer; type: in vivo, human; details: each group; loading doses then custirsen with a chemotherapeutic agent
Text: At least 50 ovarian cancer patients are separated into two groups.

[6] = in vivo
[7] = Custirsen up-titration with dexamethasone premedication, tolerability and ECG Holter (discussion); details: with or without premedication with dexamethasone
[8] = Phase I dose-escalation Study OGX-011-01, custirsen with neoadjuvant hormone therapy, prostate cancer patients; details: 40 mg to 640 mg custirsen, repeated doses with neoadjuvant hormone therapy
[9] = OGX 40 ip qd*5, twk, group Mean, n 10
[10] = OGX 40 ip qd*5, twk, group Mean, n 10, vs Day 20
[11] = OGX 40 ip qd*5, twk, individual mouse, listed as OGX
[12] = OGX 40 ip qd*5, twk, individual mouse, vs Day 20, listed as OGX
[13] = OGX 40 ip qd*5, twk, group mean

Custirsen: anti-clusterin antisense oligonucleotide CAGCAGCAGAGTCTTCATCAT, phosphorothioate backbone, 2′-O-methoxyethyl at nucleotides 1-4 and 18-21, 5-methylcytosines at 1, 4, 19 (antisense e[5mC]*eA*eG*e[5mC]*dA*dG*dC*dA*dG*dA*dG*dT*dC*dT*dT*dC*dA*eT*e[5mC]*eA*eT; listed as Homo sapiens)
Day 20 volume [1, 9]: 142.8
Day 20 weight [1, 9]: 18.5
Day 27 % of baseline (weight) [1, 9]: 102.6%
Day 27 volume [1, 9]: 219.2
Day 27 weight [1, 9]: 19.0
Day 34 % of baseline (weight) [1, 9]: 95.3%
Day 34 volume [1, 9]: 263.1
Day 34 weight [1, 9]: 17.7
Day 27 Δ % (weight) [1, 10]: 2.6%
Day 27 Δ volume [1, 10]: 76.4
Day 27 Δ weight [1, 10]: 0.4
Day 34 Δ % (weight) [1, 10]: −4.7%
Day 34 Δ volume [1, 10]: 120.3
Day 34 Δ weight [1, 10]: −0.8
Day 20 volume [1, 11]: 119 and 124 and 125 and 139 and 141 and 145 and 151 and 155 and 162 and 169
Day 20 weight [1, 11]: 16.1 and 17.7 and 17.1 and 20.6 and 19.7 and 18.6 and 18.4 (2×) and 20.0 and 18.9
Day 27 % of baseline (weight) [1, 11]: 113.2% and 102.5% and 100.3% and 98.7% and 102.4% and 101.7% and 100.5%
Day 27 volume [1, 11]: 96 and 207 and 171 and 249 and 222 and 246 and 319 and 193 and 217 and 271
Day 27 weight [1, 11]: 18.2 (2×) and 18.0 and 20.8 and 19.7 and 18.4 and 18.9 and 20.3 and 18.6 and 19.0
Day 34 % of baseline (weight) [1, 11]: 84.3% and 98.1% and 99.6% and 94.5% and 97.3% and 96.5% and 98.9% and 95.3% and 93.3% and 95.4%
Day 34 volume [1, 11]: 98 and 244 and 223 and 257 and 305 and 336 and 371 and 220 and 266 and 312
Day 34 weight [1, 11]: 13.5 and 17.4 and 17.1 and 19.5 and 19.1 and 18.0 (2×) and 18.2 and 19.0 and 17.2
Day 41 % of baseline (weight) [1, 11]: 100.4% and 100.3% and 99.5% and 95.8% and 100.1% and 104.4% and 101.6%
Day 41 volume [1, 11]: 454 and 474 and 560 and 267 and 320 and 457 and 410 and 295 and 322
Day 41 weight [1, 11]: 19.8 and 18.7 and 19.5 and 19.9 and 17.6 and 18.9 and 18.8 and 17.9 and 20.9
Day 45 % of baseline (weight) [1, 11]: 104.1% and 102.7% and 111.4% and 101.5% and 108.1% and 109.8%
Day 45 volume [1, 11]: 587 and 584 and 826 and 467 and 428 and 490 and 511 and 272 and 579
Day 45 weight [1, 11]: 20.5 and 19.1 (2×) and 20.6 and 21.1 and 18.7 and 19.2 and 18.8 and 21.9
Day 27 Δ % (weight) [1, 12]: 13.2% and 2.5% and 4.8% and 1.1% and 0.3% and −1.3% and 2.4% and 1.7% and 0.8% and 0.5%
Day 27 Δ volume [1, 12]: −23.1 and 84.0 and 46.2 and 110.4 and 81.2 and 100.3 and 168.8 and 38.8 and 55.3 and 102.6
Day 27 Δ weight [1, 12]: 2.1 and 0.4 (2×) and 0.8 and 0.2 (2×) and 0.1 (2×) and −0.3 and 0.3
Day 34 Δ % (weight) [1, 12]: −15.7% and −1.9% and −0.4% and −5.5% and −2.7% and −3.5% and −1.1% and −4.7% and −6.7% and −4.6%
Day 34 Δ volume [1, 12]: −20.6 and 120.3 and 97.9 and 117.8 and 163.9 and 190.8 and 219.9 and 65.4 and 104.3 and 142.9
Day 34 Δ weight [1, 12]: −2.5 and −0.3 and −0.1 and −1.1 and −0.5 and −0.6 and −0.2 and −0.9 (2×) and −1.2
Day 41 Δ % (weight) [1, 12]: 0.4% and 0.3% and 5.9% and −0.5% and −4.2% and 0.1% and 6.0% and 4.4% and 1.6%
Day 41 Δ volume [1, 12]: 313.0 and 328.4 and 409.6 and 112.3 and 157.8 and 288.2 and 286.2 and 170.4 and 183.5
Day 41 Δ weight [1, 12]: 0.1 (2×) and 1.1 (2×) and −0.1 and −0.8 and 0.0 and 0.8 and 0.3
Day 45 Δ % (weight) [1, 12]: 4.1% and 2.7% and 11.4% and 5.6% and 1.5% and 1.3% and 8.1% and 9.8% and 6.1%
Day 45 Δ volume [1, 12]: 446.1 and 439.0 and 675.2 and 313.0 and 266.0 and 321.7 and 388.0 and 147.2 and 440.5
Day 45 Δ weight [1, 12]: 0.8 and 0.5 and 2.1 and 1.1 and 0.3 and 0.2 and 1.4 and 1.7 and 1.3
weight [1, 13]: 20.5
Δ weight [1, 13]: 1.6
volume [1, 13]: 1717.4
Δ volume [1, 13]: 1572.6
% of baseline [1, 13]: 108.3%
Δ % [1, 13]: 8.3%
weight [1, 11]: 21.04 and 22.19 and 19.81 and 20.11
Δ weight [1, 11]: 1.4 (2×) and 2.2 and 1.2
volume [1, 11]: 2185 and 1918 and 1519 and 2426
Δ volume [1, 11]: 2043.7 and 1763.0 and 1357.1 and 2257.1
% of baseline [1, 11]: 106.9% and 111.2% and 107.7% and 106.4%
Δ % [1, 11]: 6.9% and 11.2% and 7.7% and 6.4%
mice died ([1]; custirsen 40 mg/kg group, day 34): one
injections given before treatment was stopped due to toxicity ([1]; custirsen 40 mg/kg, both groups (5 consecutive + 2 on the next week)): 7 injections
tumor growth inhibition by the end of the study ([1]; custirsen 40 mg/kg, either alone or in combination): significantly inhibited tumor growth
time of peak of prolonged coagulation parameters after dose ([2]; human, in vivo): around 48 hours
coagulation parameters (PTT and PT) ([2]; most subjects, starting a few hours after the first loading dose): Slightly prolonged
AEs related to custirsen ([2]; multiple 640 mg doses, after the first infusion): 93 AEs
deaths or other SAEs ([2]; single and repeated doses of 640 mg custirsen, healthy volunteers): No deaths or other SAEs were reported; also recorded: no SAEs
cancer condition of patients [3]: improves
cancer condition of patients [4]: improves
cancer condition of patients [5]: improves
grade-4 liver toxicity [6]: no reports
incidence of elevated liver function tests (ELFTs) [6]: higher incidence
effect of up-titration (reduced loading doses) on constitutional syndrome / side effects [7]: mitigated
dose limiting toxicities, deaths, AEs leading to withdrawal [8]: No dose limiting toxicities, deaths, or adverse events (AEs) leading to withdrawal were reported
